As usually defined, the Ki is the equilibrium dissociation constant of an inhibitor or competing ligand from its target. Lower therefore signals higher affinity.

This assay has as its target MDM2 (Homo sapiens, UniProt Q00987). Kind of assay: biochemical.

Sequence of MDM2 (Q00987 1-118): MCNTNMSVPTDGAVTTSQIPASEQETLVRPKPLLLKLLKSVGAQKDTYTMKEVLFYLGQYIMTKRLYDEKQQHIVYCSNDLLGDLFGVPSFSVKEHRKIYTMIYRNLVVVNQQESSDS

Regarding `CC(C)(C)C[C@H]1N[C@@H](C(=O)NCC[C@H](O)CO)[C@H](c2ccc(F)c(Cl)c2)[C@@]12C(=O)Nc1cc(Cl)c(F)cc12` [MI-319], the affinity corresponds to a Ki of 9.6 ± 3.9 nM.
